Reference: patent publication US10620222B2, “Electrified compositions for determining the risk of developing adolescent idiopathic scoliosis through the use of GI protein receptor” (CHU Sainte-Justine, priority 2008, dated 2020)
“And” between values parts separate entries of the source, which are not always exact repeats. Equal values may be shown once.

Test system: receptors coupled to Gi proteins expressed on osteoblasts
Experiment: Cellular Dielectric Spectroscopy (CDS, CELLKEY) response to Gi-coupled receptor ligands in osteoblasts from control and AIS subjects
Assay type: cell-based, human
Settings: for dZiec value: n1, n2 of Exper. 1-3
From the text: Bone specimens were obtained intraoperatively from vertebras (varying from T3 to L4 according to the surgical procedure performed), while with trauma cases used as non-scoliotic controls bone specimens were obtained from other anatomical sites (tibia or femur, and in one case from an iliac crest biopsy). Osteoblasts and myoblasts isolated as previously described (Moreau A, Wang D S, Forget S et al. Melatonin Signaling Dysfunction in Adolescent Idiopathic Scoliosis. Spine 2004; 29:1772-81; Azeddine et al., 2007 Molecular determinants of melatonin signaling dysfunction in adolescent idiopathic scoliosis. Clin Orthop Relat Res. 2007, 462:45-52), were cultured at 37° C./5% CO2 in MEM supplemented with 10% fetal bovine serum (FBS) and 100 μg/mL streptomycin. Prior to the experiment, cells were seeded into the CELLKEY™ label-free cellular analysis system standard 96-well plates at a density of 5×10^4/well and grown for 24 h and incubated in standard conditions (37° C./5% CO2). In some plates, Pertussis toxin (100 ng/mL, Sigma, Oakville, ON, Canada) treatment was performed 16 h before the CDS assay. Following overnight incubation, plates were placed onto the CELLKEY™ label-free cellular analysis system and growth medium was exchanged to assay buffer (Hanks, Balanced Salt Solution containing 20 mM HEPES and 0.1% BSA) before starting the experiment. Cells were then allowed to equilibrate at room temperature for 30 min. Pre-addition measurements were made for 5 min to obtain a baseline reading. […] The quick update rate (2 s.) of the CELLKEY™ label-free cellular analysis system allows detection of these immediate changes in impedance. Impedance measurements were collected for 10 min to 15 min at 28° C. after ligand addition to monitor cellular responses to ligand interaction and to generate CELLKEY™ label-free cellular analysis system response profiles that are characteristic of the signaling mechanisms used.
The response induced by the various ligands to their receptors was measured by cellular dielectric spectroscopy (CDS) using the CELLKEY™ label-free cellular analysis technology. (MDS Sciex, San Francisco, Calif., USA). The CELLKEY™ label-free cellular analysis system integrates a proprietary impedance measurement system, custom 96-well microliter plate, onboard 96-well fluidics, and environment control and custom acquisition and analysis software in a full solution package (MDS Sciex) that is compatible with commercially available robotic platforms. Small voltage at 24 frequencies, from 1 KHz to 10 MHz, is applied to a monolayer of cells settled in a 96-well microplate containing electrodes at the bottom, and the resultant current is measured at an update rate of 2 s. […] Onboard fluid additions and exchanges are handled by 96-well head fluid delivery device with a range of 5-500 μL. In addition to the cell plate location, the CELLKEY™ label-free cellular analysis system includes two additional stations for 96- or 384-well compound plates. All aspects of assay set up, execution, and data acquisition and analysis are controlled by CELLKEY™ label-free cellular analysis software.
The minimal (min) and maximal (max) values represent the mean of three independent measurements performed in duplicate (six values in total) for a given patient/control subject. […] Duplicates (n1 and n2) of three independent experiments are presented.

[1] = osteoblasts of control subjects, 300 μM ligand, from FIGS. 11A-11F

Brc1c(NC2=NCCN2)ccc2nccnc12 [UK14304, 5-bromo-N-(4,5-dihydro-1H-imidazol-2-yl)-6-quinoxalinamine]
% of control (osteoblasts of AIS#1020 (Group 3) relative to CTR#60): 42.4% and 37.2% and 34.7% and 40.5% and 37.5% and 41.7%
dZiec value (osteoblasts of AIS#1020 (Group 3), 300 μM ligand): 42.74 and 39.74 and 43.5 and 51.5 and 41.62 and 49.62
% of control (osteoblasts of AIS#1198 (Group 3 in Table II) relative to CTR#69): 42.6% and 43.7% and 57.1% and 54.0% and 49.1% and 58.9%
dZiec value (osteoblasts of AIS#1198 (Group 3 in Table II), 300 μM ligand): 44.16 and 46.16 and 56.22 and 54.22 and 46.19 and 54.19
% of control (osteoblasts of AIS#1468 (Group 3) relative to CTR#61): 72.7% and 71.7% and 76.2% and 68.8% and 73.0%
dZiec value (osteoblasts of AIS#1468 (Group 3), 300 μM ligand): 65.72 and 67.72 and 77.77 and 75.77 and 67.75 and 75.75
% of control (osteoblasts of AIS#1474 (Group 1) relative to CTR#60): 20.4% and 19.3% and 18.6% and 19.1% and 17.5% and 16.4%
dZiec value (osteoblasts of AIS#1474 (Group 1), 300 μM ligand): 20.6 and 23.35 and 24.35 and 19.48
% of control (osteoblasts of AIS#1488 (Group 1) relative to CTR#69): 25.3% and 24.2% and 26.3% and 18.8% and 28.2% and 28.5%
dZiec value (osteoblasts of AIS#1488 (Group 1), 300 μM ligand): 26.24 and 25.55 and 25.92 and 18.92 and 26.55
% of control (osteoblasts of AIS#1513 (Group 3) relative to CTR#61): 64.7% and 64.0% and 70.1% and 63.2% and 65.8% and 67.8%
dZiec value (osteoblasts of AIS#1513 (Group 3), 300 μM ligand): 58.45 and 60.45 and 71.58 and 69.58 and 61.02 and 69.02
% of control (osteoblasts of AIS#1549 (Group 1) relative to CTR#61): 30.0% and 30.8% and 33.7% and 33.1% and 35.3% and 36.1%
dZiec value (osteoblasts of AIS#1549 (Group 1), 300 μM ligand): 27.08 and 29.08 and 34.45 and 36.45 and 32.76 and 36.76
% of control (osteoblasts of AIS#1550 (Group 2) relative to CTR#60): 53.2% and 42.7% and 45.3% and 35.2% and 41.6% and 45.5%
dZiec value (osteoblasts of AIS#1550 (Group 2), 300 μM ligand): 53.62 and 45.62 and 56.75 and 44.75 and 46.19 and 54.19
dZiec value (osteoblasts of control CTR#60, 300 μM ligand): 100.78/— and 106.78/— and 125.27/— and 127.27/— and 111.02/— and 119.02/—
dZiec value (osteoblasts of control CTR#61, 300 μM ligand): 90.39/— and 94.39/— and 102.1/— and 110.1/— and 92.75/— and 101.75/—
dZiec value (osteoblasts of control CTR#69, 300 μM ligand): 103.67/— and 105.67/— and 98.38/— and 100.38/— and 94.02/— and 92.02/—
Absolute dZiec, control value of max diff. (maximal control value) [1]: 115
Absolute dZiec, control value of min diff. (minimal control value) [1]: 98
Absolute dZiec, Group 1, max diff. (group value) (osteoblasts, AIS Group 1 value of max diff., 300 μM ligand, from FIGS. 11A-11F): 21
Absolute dZiec, Group 1, min diff. (group value) (osteoblasts, AIS Group 1 value of min diff., 300 μM ligand, from FIGS. 11A-11F): 32
% of control signal, Group 1, max diff. (osteoblasts, AIS Group 1 vs maximal control value): 18%
% of control signal, Group 1, min diff. (osteoblasts, AIS Group 1 vs minimal control value): 33%
Absolute dZiec, Group 2, max diff. (group value) (osteoblasts, AIS Group 2 value of max diff., 300 μM ligand, from FIGS. 11A-11F): 45
Absolute dZiec, Group 2, min diff. (group value) (osteoblasts, AIS Group 2 value of min diff., 300 μM ligand, from FIGS. 11A-11F): 50
% of control signal, Group 2, max diff. (osteoblasts, AIS Group 2 vs maximal control value): 39%
% of control signal, Group 2, min diff. (osteoblasts, AIS Group 2 vs minimal control value): 51%
Absolute dZiec, Group 3, max diff. (group value) (osteoblasts, AIS Group 3 value of max diff., 300 μM ligand, from FIGS. 11A-11F): 60
Absolute dZiec, Group 3, min diff. (group value) (osteoblasts, AIS Group 3 value of min diff., 300 μM ligand, from FIGS. 11A-11F): 71
% of control signal, Group 3, max diff. (osteoblasts, AIS Group 3 vs maximal control value): 52%
% of control signal, Group 3, min diff. (osteoblasts, AIS Group 3 vs minimal control value): 72%
